These results are taken from PMC7344389, “Discovery of Anti-Amoebic Inhibitors from Screening the MMV Pandemic Response Box on Balamuthia mandrillaris, Naegleria fowleri, and Acanthamoeba castellanii” (Pathogens, 2020).

The test system of test [1] is Naegleria fowleri trophozoites. Description: CellTiter-Glo 2.0 trophocidal assay, N. fowleri. It is filed as cell-based. The procedure: Pathogenic Naegleria fowleri (ATCC 30215), a clinical isolate obtained from a child in Adelaide, Australia, that died of PAM in 1969 was previously purchased from the American Type Culture Collection (ATCC). Trophozoites were routinely grown axenically at 34 °C in Nelson’s complete medium (NCM) in non-vented 75 cm^2 tissue culture flasks (Olympus, El Cajon, CA, USA), until the cells were 80–90% confluent. For sub-culturing, cells were placed on ice to detach the cells from the culture flasks. The cells were collected by centrifugation at 4000 rpm at 4 °C. Complete NCM media is produced by the addition of 10% FBS and 125 μg of penicillin/streptomycin antibiotics.
The trophocidal activity of compounds was assessed using the CellTiter-Glo 2.0 luminescent viability assay (Promega, Madison, WI, USA), as previously described. Trophozoites were routinely cultured as described above and only logarithmic trophozoites were used. In brief, B. mandrillaris, N. fowleri, or A. castellanii trophozoites cultured in their corresponding media were seeded at 16,000, 3000, or 1440 cells/well into white 96-well plates (Costar 3370), respectively. Initially all compounds were assessed in a single-point drug screen at 10 and 1 μM, as previously described. […] Control wells were supplemented with 0.1% (10 μM screening plate) or 0.01% (1 μM screening plate) DMSO, as the negative controls, or 12.5 μM of chlorhexidine, as the positive control. Following the single-point assays at 10 and 1 µM, we prioritized compounds for progression to IC50 determinations. […] We used this process to reduce the number of potential false positives. Drugs were cherry-picked, dissolved in the media specific to each parasite, and assessed in twofold serial dilutions from the highest concentration of 10 μM. All assays were incubated at each of the parasites’ representative growth temperatures, described above, for 72 h. At the 72 h time point, 25 μL of CellTiter-Glo 2.0 reagent was added to all wells of the 96-well plates using the Biomek NX^P automated workstation. The plates were protected from light and contents were mixed using an orbital shaker at 300 rpm at room temperature for 2 min to induce cell lysis. After shaking, the plates were equilibrated at room temperature for 10 min to stabilize the luminescent signal. The adenosine triphosphate (ATP) luminescent signal (relative light units; RLUs) was measured at 490 nm with a SpectraMax I3X plate reader (Molecular Devices, Sunnyvale, CA, USA). Drug inhibitory concentration (IC50) curves were generated using total ATP RLUs, where controls were calculated as the average of replicates using the Levenberg–Marquardt algorithm, using DMSO as the normalization control, as defined in Collaborative Drug Discovery Inc. (CDD) Vault (Burlingame, CA, USA). Values reported are from a minimum of two biological replicates with standard deviations.

Test [2] concerns A549 human lung carcinoma cells. The test is described as follows: MTS cytotoxicity counter-screen of reconfirmed hits. Type of test: cell-based. On the procedure:
Cytotoxicity of the reconfirmed hits was determined by using the CellTiter 96® AQueous One Solution Cell Proliferation Assay (Promega, Madison, WI) on A549 human lung carcinoma cells. A549 cells were seeded at a concentration of 1.6 × 10^4 cells/mL in 96-well tissue culture plates (Corning, NY, USA), in the presence of serially diluted active hits against B. mandrillaris, N. fowleri, or A. castellanii. Positive control wells contained cells and media; negative control wells contained 0.1% DMSO. Cells were grown in F12K medium supplemented with 10% FBS and 1% gentamycin (all supplied from Fisher Scientific, Atlanta, GA, USA). The inhibitor concentration started at 10 µM and was diluted in doubling dilutions to assess cytotoxicity in comparison to the respective free-living amoeba. Total volume of each well was 100 µL and plates were incubated at 37 °C, 5% CO2 for 72 h. Next, 4 h before the time-point, 20 µL of MTS (Promega, Madison, WI, USA) was added to each well. Inhibition of A549 growth was assessed at the 72 h time-point measuring the optical density (OD) values at 490 nm using a SpectraMax I3X plate reader (Molecular Devices, Sunnyvale, CA, USA). Curve fitting using non-linear regression was carried out using the average of replicates and the Levenberg–Marquardt algorithm, using DMSO as the normalization control, as defined in CDD Vault (Burlingame, CA, USA).
(In general: Counterscreens check selectivity or assay interference.)

The mark [3] stands for this setting: CTG method, 72 h, duplicate twofold serial dilutions from 10 µM, mean ± SD; read-out: N. fowleri Mean IC50 (µM) ± SD.
Where [4] appears, read: MTS assay, 72 h, doubling dilutions from 10 µM, read-out: A549 Mean IC50.
The mark [5] stands for this setting: Homo sapiens, A549, MTS assay, 72 h, doubling dilutions from 10 µM, read-out: A549 Mean IC50.
The mark [6] stands for this setting: Naegleria fowleri, 72 h, CTG method, 72 h, duplicate twofold serial dilutions from 10 µM, mean ± SD; read-out: N. fowleri Mean IC50 (µM) ± SD.

Structures are written as SMILES. Where two headings read alike, the source gives them in different places.

For `CCOC(=O)Nc1cc(NC(C)CC(C)CN(CC)CC)c2nc(-c3ccccc3)c(-c3ccccc3)nc2n1` (stereo not drawn) [MMV1633967], the IC50 (commonly the concentration that inhibits the measured activity by half) in test [1] (setting [3]) was 8.2 ± 1 µM; in test [2] (setting [4]) it was > 10 µM.
Regarding `Cn1cncc1[C@@](N)(c1ccc(Cl)cc1)c1ccc2c(c1)c(-c1cccc(Cl)c1)cc(=O)n2C` [Tipifarnib], the IC50 in test [1] (Naegleria fowleri, 72 h, read-out: N. fowleri Mean IC50 (µM) ± SD) was 1.23 ± 0.27 µM; in test [2] (setting [5]), 8 µM. Also, the “Selectivity Index (A549 IC50/N. fowleri IC50)” value (from here on “Selectivity Index”) in test [1] (SI = (IC50 A549)/(IC50 Amoeba)) stood at 6.50.
On to `N#C/C(=C1/SC[C@@H](c2ccc(Cl)cc2Cl)S1)n1ccnc1` [Luliconazole], for which the IC50 was 0.02 ± 0.01 µM in test [1] (setting [6]) and > 10 µM in test [2] (setting [5]). The “Selectivity Index” value in test [1] (SI = (IC50 A549)/(IC50 Amoeba)) is ≥556; in test [1] (SI = (IC50 A549)/(IC50 Amoeba); listed as luliconazole), ≥ 10. Further, the “potency against N. fowleri, in words” value in test [1] (dose-response, CTG) is on record as “nanomolar potency”.
`CC[C@H]1OC(=O)[C@H](C)[C@@H](O[C@H]2C[C@@](C)(OC)[C@@H](O)[C@H](C)O2)[C@H](C)[C@@H](O[C@@H]2O[C@H](C)C[C@H](N(C)C)[C@H]2O)[C@](C)(O)C[C@@H](C)C(=O)[C@H](C)[C@@H](O)[C@]1(C)O` [Erythromycin]: the results for the IC50 in test [1] (setting [6]) and in test [2] (setting [5]) were 0.24 ± 0.02 µM and > 10 µM, respectively. Besides, the figures for the “Selectivity Index” value in test [1] (SI = (IC50 A549)/(IC50 Amoeba)) and in test [1] (SI = (IC50 A549)/(IC50 Amoeba); listed as erythromycin) were ≥42.6 and ≥ 10, respectively. Besides, in test [1] (dose-response, CTG), the “potency against N. fowleri, in words” value was “nanomolar potency”.
`C=CCN(C(=O)OCc1ccc([N+](=O)[O-])cc1)C1CCN(CC[C@](C)(CN(C)S(=O)(=O)c2ccccc2)c2ccccc2)CC1` [MMV1782214]: the IC50 in test [1] (setting [3]) was 7.9 µM; in test [2] (setting [4]) it was > 10 µM.
For the compound `Nc1nc(F)nc2c1ncn2[C@@H]1O[C@H](CO)[C@@H](O)[C@@H]1O` [Fludarabine], the IC50 in test [1] (Naegleria fowleri; CTG method, 72 h, duplicate twofold serial dilutions from 10 µM, mean ± SD; read-out: N. fowleri Mean IC50 (µM) ± SD) is 0.11 ± 0.03 µM; in test [2] (Homo sapiens, A549, 72 h, read-out: A549 Mean IC50 (µM)), < 0.31 µM. Moreover, in test [1] (SI = (IC50 A549)/(IC50 Amoeba)), the “Selectivity Index” value was <2.83. The “potency against N. fowleri, in words” value in test [1] (dose-response, CTG) was “nanomolar potency”.
With `O=c1cc(NCCCN[C@@H]2CCOc3c(Br)cc(Br)cc32)[nH]c2ccsc12` [MMV1578884], the half-maximal inhibitory concentration (IC50) in test [1] (setting [6]) is 0.08 ± 0.02 µM; in test [2] (setting [5]), > 10 µM. For the same compound, the “Selectivity Index” value in test [1] (SI = (IC50 A549)/(IC50 Amoeba)) was ≥128; in test [1] (SI = (IC50 A549)/(IC50 Amoeba); listed as CRS-3123), ≥ 10. Also, the “potency against N. fowleri, in words” value in test [1] (dose-response, CTG) is “nanomolar potency”.
Consider `CN1c2ccc(Cl)cc2N(c2ccccc2)C(=O)c2cn(Cc3ccc(CN4CCOCC4)cc3)nc21` [MMV1782222], for which the IC50 in test [1] (setting [3]) is 5.4 µM; in test [2] (setting [4]), > 10 µM.
Take `OCCC#Cc1nc(-c2ccc(F)cc2)c(-c2ccncc2)n1CCCc1ccccc1` [RWJ-67657]: the half-inhibitory concentration (IC50) in test [1] (setting [6]) is 5.35 ± 0.35 µM; in test [2] (setting [5]), > 10 µM. Moreover, the “Selectivity Index” value in test [1] (SI = (IC50 A549)/(IC50 Amoeba)) is listed as ≥1.87.
`NC(=S)N/N=C/c1ncccc1N` [Triapine]: the half-maximal inhibitory concentration (IC50) in test [1] (setting [6]) turned out to be 4 ± 0.1 µM; in test [2] (setting [5]) it was 3.5 µM. The “Selectivity Index” value in test [1] (SI = (IC50 A549)/(IC50 Amoeba)) is 0.88.
Regarding `C=C[C@]1(C)C[C@@H](OC(=O)CS[C@@H]2C[C@H]3CC[C@@H](C2)N3C)[C@]2(C)[C@H](C)CC[C@]3(CCC(=O)[C@H]32)[C@@H](C)[C@@H]1O` [Retapamulin], the IC50 in test [1] (CTG method, 72 h, duplicate twofold serial dilutions from 10 µM, mean ± SD; listed as repatamulin; read-out: N. fowleri Mean IC50 (µM) ± SD) is ≤ 10 µM; in test [1] (setting [3]) it was 1.12 ± 0.28 µM; in test [2] (setting [5]), > 10 µM. Besides, in test [1] (SI = (IC50 A549)/(IC50 Amoeba)), the “Selectivity Index” value is listed as ≥8.97.
For the compound `NC[C@H]1OB(O)c2c(OCCCO)cccc21` [Epetraborole], the concentration for half-maximal inhibition (IC50) is 2.6 ± 0.3 µM in test [1] (setting [6]) and > 10 µM in test [2] (setting [5]). In addition, the “Selectivity Index” value in test [1] (SI = (IC50 A549)/(IC50 Amoeba)) was ≥3.85.
With `Nc1nc(N)c2c(Sc3ccccc3)cccc2n1` [MMV021759], the 50% inhibitory concentration (IC50) in test [2] (setting [4]) was > 10 µM.
Turning to `Cc1cc(C2CCCCC2)n(O)c(=O)c1` [Ciclopirox], the IC50 was 7.5 ± 1.4 µM in test [1] (setting [6]) and > 10 µM in test [2] (setting [5]). In test [1] (SI = (IC50 A549)/(IC50 Amoeba)), the “Selectivity Index” value is ≥1.33.
Take `COc1ccc2sc3c(c2c1)NC(C)CNC3=O` (stereo not drawn) [MMV1782115]: the IC50 worked out at 9.35 ± 0.35 µM in test [1] (setting [3]) and 5.8 µM in test [2] (setting [4]).
As for `CC[C@@]1(O)C(=O)OCc2c1cc1n(c2=O)Cc2cc3c([N+](=O)[O-])cccc3nc2-1` [Rubitecan], the IC50 in test [1] (setting [6]) came to 2.3 ± 0.2 µM; in test [2] (setting [5]), 0.47 µM. In test [1] (SI = (IC50 A549)/(IC50 Amoeba)), the “Selectivity Index” value amounted to 0.20.
`Oc1c(C(Nc2nc3ccccc3s2)c2ccc(OC(F)F)cc2)ccc2cccnc12` (stereo not drawn) [MMV019724]: the IC50 in test [1] (setting [3]) stood at 6 ± 0.7 µM; in test [2] (setting [4]), 6.2 µM.
On to `O=C(Nc1cccc(C2=NCCN2)c1)c1ccc(-c2ccc(C(=O)Nc3cccc(C4=NCCN4)c3)cc2)cc1` [MMV1580853], for which the half-inhibitory concentration (IC50) in test [1] (setting [3]) was 4.95 ± 2.55 µM; in test [2] (setting [4]) it was > 10 µM.
Turning to `C[C@H](c1cccc2ccccc12)N(C)Cc1ccccc1` [MMV1782221], in test [2] (setting [4]), the 50% inhibitory concentration (IC50) was > 10 µM.
As to `Nc1nc(Nc2ccc3nc(-c4ccc(F)cc4)cc(N)c3c2)cc(-c2ccccc2)n1` [MMV1593541], the results for the 50% inhibitory concentration (IC50) in test [1] (setting [3]) and in test [2] (setting [4]) were 5.3 ± 0.6 µM and 2.3 µM, respectively.
Regarding `Cc1cccc(C)c1C(=O)Nc1nc(-c2ccccn2)cc2ccccc12` [MMV1581558], in test [2] (setting [4]), the concentration for half-maximal inhibition (IC50) is > 10 µM.
On to `CN(C)[C@@H]1C(O)=C(C(N)=O)C(=O)[C@@]2(O)C(O)=C3C(=O)c4c(O)c(NC(=O)CN5CCCC5)cc(F)c4C[C@H]3C[C@@H]12` [Eravacycline], for which the half-inhibitory concentration (IC50) is 2.75 ± 0.35 µM in test [1] (setting [6]) and > 10 µM in test [2] (setting [5]). The “Selectivity Index” value in test [1] (SI = (IC50 A549)/(IC50 Amoeba)) is ≥3.64.
As for `CCC(C)NCC(O)Cn1c2ccc(Cl)cc2c2cc(Cl)ccc21` (stereo not drawn) [MMV1578570], the IC50 in test [1] (setting [3]) is 6.4 ± 0.9 µM; in test [2] (setting [4]) it was > 10 µM.
